Measured values published in PubChem BioAssay (NCI).
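Results reflect a 48-hour exposure of cells in 96-well plates to compound at five concentrations. GI50 marks 50% less growth. TGI denotes the concentration required for complete inhibition of growth.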

How the values were obtained:
Assay in all cases: NCI tumour cell line growth inhibition, 48 h
[1] = tested on: HCT-116 colon
[2] = tested on: NCI-H522 lung
[3] = tested on: MOLT-4 leukemia
[4] = tested on: UO-31 renal
[5] = tested on: MCF7 breast
[6] = tested on: HT29 colon
[7] = tested on: NCI-H226 lung
[8] = tested on: SK-MEL-28 melanoma
[9] = tested on: U251 CNS
[10] = tested on: HL-60(TB) leukemia
[11] = tested on: RPMI-8226 leukemia
[12] = tested on: OVCAR-5 ovarian
[13] = tested on: TK-10 renal
[14] = tested on: HOP-92 NSCLC
[15] = tested on: BT-549 breast
[16] = tested on: SF-295 CNS
[17] = tested on: 786-0 renal
[18] = tested on: OVCAR-4 ovarian
[19] = tested on: LOX IMVI melanoma
[20] = tested on: ACHN renal
[21] = tested on: K-562 leukemia
[22] = tested on: UACC-257 melanoma
[23] = tested on: NCI/ADR-RES ovarian
[24] = tested on: SF-268 CNS
[25] = tested on: MALME-3M melanoma
[26] = tested on: PC-3 prostate
[27] = tested on: SNB-75 CNS
[28] = tested on: NCI-H460 lung
[29] = tested on: RXF 393 renal
[30] = tested on: NCI-H23 lung
[31] = tested on: A498 renal
[32] = tested on: HCC-2998 colon
[33] = tested on: SK-MEL-2 melanoma
[34] = tested on: SK-OV-3 ovarian
[35] = tested on: OVCAR-8 ovarian
[36] = tested on: SR leukemia
[37] = tested on: SN12C renal
[38] = tested on: KM12 colon
[39] = tested on: CAKI-1 renal
[40] = tested on: SW-620 colon
[41] = tested on: EKVX NSCLC
[42] = tested on: COLO 205 colon
[43] = tested on: UACC-62 melanoma
[44] = tested on: MDA-MB-231 breast
[45] = tested on: IGROV1 ovarian
[46] = tested on: HCT-15 colon
[47] = tested on: HS 578T breast
[48] = tested on: DU-145 prostate
[49] = tested on: SF-539 CNS
[50] = tested on: T-47D breast
[51] = tested on: SK-MEL-5 melanoma
[52] = tested on: CCRF-CEM leukemia
[53] = tested on: M14 melanoma
[54] = tested on: A549 NSCLC
[55] = tested on: SNB-19 CNS
[56] = tested on: HOP-62 NSCLC
[57] = tested on: MDA-MB-435

In the case of `O=C(NNc1nc2cc(F)ccc2n2c(CO)ccc12)c1cnccn1`, the GI50 [1] is reported as 345 nM, the TGI [1] is reported as over 42900 nM and the GI50 [2] is reported as 1010 nM. The TGI [2] was 8070 nM, the GI50 [3] was 407 nM and the TGI [3] was over 100000 nM. It also gave a GI50 [4] of 68.9 nM, a TGI [4] of 5050 nM and a GI50 [5] of 541 nM. For the same compound, the TGI [5] was 36000 nM, the GI50 [6] was 552 nM and the TGI [6] was over 100000 nM. The GI50 [7] was 367 nM, the TGI [7] was 10800 nM and the GI50 [8] was 595 nM. The TGI [8] was over 100000 nM, the GI50 [9] was 390 nM and the TGI [9] was over 100000 nM. It also gave a GI50 [10] of 435 nM, a TGI [10] of over 38000 nM and a GI50 [11] of 721 nM. It also gave a TGI [11] of over 57600 nM, a GI50 [12] of 1360 nM and a TGI [12] of over 100000 nM. The GI50 [13] was 504 nM, the TGI [13] was over 100000 nM and the GI50 [14] was 1400 nM. For the same compound, the TGI [14] was 63800 nM, the GI50 [15] was 667 nM and the GI50 [16] was 295 nM. It also gave a TGI [16] of over 100000 nM, a GI50 [17] of 387 nM and a TGI [17] of 11900 nM. It also gave a GI50 [18] of 534 nM, a TGI [18] of over 83100 nM and a GI50 [19] of 317 nM. The TGI [19] was 4080 nM, the GI50 [20] was 111 nM and the TGI [20] was 12200 nM. The GI50 [21] was 508 nM, the TGI [21] was over 100000 nM and the GI50 [22] was 1160 nM. For the same compound, the TGI [22] was 6050 nM, the GI50 [23] was 243 nM and the TGI [23] was over 24900 nM. For the same compound, the GI50 [24] was 516 nM, the TGI [24] was over 100000 nM and the GI50 [25] was 1070 nM. For the same compound, the TGI [25] was 20200 nM, the GI50 [26] was 780 nM and the TGI [26] was over 100000 nM. The GI50 [27] was 986 nM, the TGI [27] was 27300 nM and the GI50 [28] was 245 nM. It also gave a TGI [28] of 11000 nM, a GI50 [29] of 557 nM and a TGI [29] of 10000 nM. For the same compound, the GI50 [30] was 895 nM, the TGI [30] was over 100000 nM and the GI50 [31] was 1160 nM. For the same compound, the TGI [31] was 4990 nM, the GI50 [32] was 568 nM and the TGI [32] was over 100000 nM. For the same compound, the GI50 [33] was 1900 nM, the TGI [33] was 56400 nM and the GI50 [34] was 543 nM. The TGI [34] was 18200 nM, the GI50 [35] was 343 nM and the TGI [35] was over 31900 nM. The GI50 [36] was 448 nM, the TGI [36] was over 100000 nM and the GI50 [37] was 704 nM. For the same compound, the TGI [37] was over 100000 nM, the GI50 [38] was 432 nM and the TGI [38] was over 100000 nM. For the same compound, the GI50 [39] was 281 nM, the TGI [39] was over 100000 nM and the GI50 [40] was 649 nM. The TGI [40] was over 100000 nM, the GI50 [41] was 408 nM and the TGI [41] was over 57200 nM. For the same compound, the GI50 [42] was 368 nM, the TGI [42] was over 38500 nM and the GI50 [43] was 481 nM. For the same compound, the TGI [43] was 11200 nM, the GI50 [44] was 633 nM and the TGI [44] was over 100000 nM. For the same compound, the GI50 [45] was 509 nM, the TGI [45] was 29500 nM and the GI50 [46] was 69.1 nM. It also gave a TGI [46] of over 45700 nM, a GI50 [47] of 4310 nM and a TGI [47] of over 100000 nM. For the same compound, the GI50 [48] was 780 nM, the TGI [48] was over 100000 nM and the GI50 [49] was 489 nM. For the same compound, the TGI [49] was over 100000 nM, the GI50 [50] was 837 nM and the TGI [50] was over 52600 nM. The GI50 [51] was 481 nM, the TGI [51] was 3610 nM and the GI50 [52] was 395 nM. For the same compound, the TGI [52] was over 60400 nM, the GI50 [53] was 292 nM and the TGI [53] was 4050 nM. For the same compound, the GI50 [54] was 471 nM, the TGI [54] was over 55800 nM and the GI50 [55] was 665 nM. For the same compound, the TGI [55] was over 100000 nM, the GI50 [56] was 344 nM and the TGI [56] was over 32800 nM. The GI50 [57] was 712 nM and the TGI [57] was over 100000 nM.
